Laboratory results published in patent publication US20220281848A1, “PYRAZOLE-SUBSTITUTED PYRROLIDINONES AS HERBICIDES” (FMC Corporation, priority 2019, published 2022).

What was measured:
Format in all cases: in vivo
[1] = system: barnyardgrass (Echinochloa crus-galli, ECHCG); assay: Test A pre-emergence, barnyardgrass; conditions: after 13 d
Summary of the method: (§1)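 Damage rated visually at 13 d on a 0–100 scale (100 = plant killed). Pre-emergence spray one day after sowing; doses 15.625, 62.5 or 250 g/ha from an acetone/water 50:50 formulation with 0.5% Tween 20. Glasshouse at 24/16° C., 14 h photoperiod, 65% humidity.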

[2] = system: redroot pigweed (Amaranthus retroflexus, AMARE); assay: Test A pre-emergence, redroot pigweed; conditions: after 13 d
Summary of the method: as §1

[3] = system: velvetleaf (Abutilon theophrasti, ABUTH); assay: Test A pre-emergence, velvetleaf; conditions: after 13 d
Summary of the method: as §1

[4] = system: corn (Zea mays, ZEAMX); assay: Test A post-emergence, corn; conditions: after 13 d
Summary of the method: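 Visual damage rating (0 no damage to 100 total damage) was made 13 d after spraying. The spray was 15.625, 62.5 or 250 g/ha in 50:50 acetone/water with 0.5% Tween 20, applied to 8-day-old glasshouse plants kept at 24/16° C, 14 h light and 65% humidity.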

[5] = system: plants; assay: Test D post-emergence, other plants of Tables D2 and D4; conditions: post-emergence
Summary of the method: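 Seeds treated with herbicide safener; sown in soil; glasshouse, 16 h light, 65% humidity. Sprayed day 1 (pre) or ~day 12 (post). Spray in 0.2% v/v adjuvant. Scored 0–100 damage: 20 DAA pre, 15 d post.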

For `CCn1nc([C@H]2CN(C)C(=O)[C@@H]2C(=O)Nc2cccc(F)c2F)c2cc(F)ccc21` [Compound 8], the “damage to plant (100=total damage; 0=no damage) ECHCG” value ([1]; Pre-Emergence at 15.625 g/ha) was 80, the “damage to plant (100=total damage; 0=no damage) ECHCG” value ([1]; Pre-Emergence at 62.5 g/ha) was 90 and the “damage to plant (100=total damage; 0=no damage) ECHCG” value ([1]; Pre-Emergence at 250 g/ha) was 90. The “damage to plant (100=total damage; 0=no damage) AMARE” value ([2]; Pre-Emergence at 15.625 g/ha) was 0, the “damage to plant (100=total damage; 0=no damage) AMARE” value ([2]; Pre-Emergence at 62.5 g/ha) was 0 and the “damage to plant (100=total damage; 0=no damage) AMARE” value ([2]; Pre-Emergence at 250 g/ha) was 0. For the same molecule, the “damage to plant (100=total damage; 0=no damage) ABUTH” value ([3]; Pre-Emergence at 15.625 g/ha) was 0, the “damage to plant (100=total damage; 0=no damage) ABUTH” value ([3]; Pre-Emergence at 62.5 g/ha) was 0 and the “damage to plant (100=total damage; 0=no damage) ABUTH” value ([3]; Pre-Emergence at 250 g/ha) was 0. For the same molecule, the “damage to plant (100=total damage; 0=no damage) ZEAMX” value ([4]; Post-Emergence at 15.625 g/ha) was 20, the “damage to plant (100=total damage; 0=no damage) ZEAMX” value ([4]; Post-Emergence at 62.5 g/ha) was 60 and the “damage to plant (100=total damage; 0=no damage) ZEAMX” value ([4]; Post-Emergence at 250 g/ha) was 80. For the same molecule, the “damage to plant (100=total damage to plant; 0=no damage to plant), ABUTH” value ([5]; rate 130, evaluated after 15 d) was 0, the “damage to plant (100=total damage to plant; 0=no damage to plant), ABUTH” value ([5]; rate 250, evaluated after 15 d) was 0 and the “damage to plant (100=total damage to plant; 0=no damage to plant), ABUTH” value ([5]; rate 500, evaluated after 15 d) was 0. For the same molecule, the “damage to plant (100=total damage to plant; 0=no damage to plant), AMARE” value ([5]; rate 130, evaluated after 15 d) was 0, the “damage to plant (100=total damage to plant; 0=no damage to plant), AMARE” value ([5]; rate 250, evaluated after 15 d) was 0 and the “damage to plant (100=total damage to plant; 0=no damage to plant), AMARE” value ([5]; rate 500, evaluated after 15 d) was 0. The “damage to plant (100=total damage to plant; 0=no damage to plant), BIDPI” value ([5]; rate 130, evaluated after 15 d) was 0, the “damage to plant (100=total damage to plant; 0=no damage to plant), BIDPI” value ([5]; rate 250, evaluated after 15 d) was 0 and the “damage to plant (100=total damage to plant; 0=no damage to plant), BIDPI” value ([5]; rate 500, evaluated after 15 d) was 0. For the same molecule, the “damage to plant (100=total damage to plant; 0=no damage to plant), BRAPL” value ([5]; rate 130, evaluated after 15 d) was 10, the “damage to plant (100=total damage to plant; 0=no damage to plant), BRAPL” value ([5]; rate 250, evaluated after 15 d) was 70 and the “damage to plant (100=total damage to plant; 0=no damage to plant), BRAPL” value ([5]; rate 500, evaluated after 15 d) was 70. The “damage to plant (100=total damage to plant; 0=no damage to plant), CYPES” value ([5]; rate 130, evaluated after 15 d) was 0, the “damage to plant (100=total damage to plant; 0=no damage to plant), CYPES” value ([5]; rate 250, evaluated after 15 d) was 0 and the “damage to plant (100=total damage to plant; 0=no damage to plant), CYPES” value ([5]; rate 500, evaluated after 15 d) was 0. For the same molecule, the “damage to plant (100=total damage to plant; 0=no damage to plant), DIGSA” value ([5]; rate 130, evaluated after 15 d) was 0, the “damage to plant (100=total damage to plant; 0=no damage to plant), DIGSA” value ([5]; rate 250, evaluated after 15 d) was 80 and the “damage to plant (100=total damage to plant; 0=no damage to plant), DIGSA” value ([5]; rate 500, evaluated after 15 d) was 80. For the same molecule, the “damage to plant (100=total damage to plant; 0=no damage to plant), ECHCG” value ([5]; rate 130, evaluated after 15 d) was 0, the “damage to plant (100=total damage to plant; 0=no damage to plant), ECHCG” value ([5]; rate 250, evaluated after 15 d) was 80 and the “damage to plant (100=total damage to plant; 0=no damage to plant), ECHCG” value ([5]; rate 500, evaluated after 15 d) was 80. For the same molecule, the “damage to plant (100=total damage to plant; 0=no damage to plant), EPHHL” value ([5]; rate 250, evaluated after 15 d) was 30, the “damage to plant (100=total damage to plant; 0=no damage to plant), EPHHL” value ([5]; rate 500, evaluated after 15 d) was 20 and the “damage to plant (100=total damage to plant; 0=no damage to plant), GLXMA” value ([5]; rate 130, evaluated after 15 d) was 0. For the same molecule, the “damage to plant (100=total damage to plant; 0=no damage to plant), GLXMA” value ([5]; rate 250, evaluated after 15 d) was 0, the “damage to plant (100=total damage to plant; 0=no damage to plant), GLXMA” value ([5]; rate 500, evaluated after 15 d) was 0 and the “damage to plant (100=total damage to plant; 0=no damage to plant), IPOHE” value ([5]; rate 130, evaluated after 15 d) was 0. The “damage to plant (100=total damage to plant; 0=no damage to plant), IPOHE” value ([5]; rate 250, evaluated after 15 d) was 0, the “damage to plant (100=total damage to plant; 0=no damage to plant), IPOHE” value ([5]; rate 500, evaluated after 15 d) was 0 and the “damage to plant (100=total damage to plant; 0=no damage to plant), ORYSA” value ([5]; rate 130, evaluated after 15 d) was 0. For the same molecule, the “damage to plant (100=total damage to plant; 0=no damage to plant), ORYSA” value ([5]; rate 250, evaluated after 15 d) was 0, the “damage to plant (100=total damage to plant; 0=no damage to plant), ORYSA” value ([5]; rate 500, evaluated after 15 d) was 10 and the “damage to plant (100=total damage to plant; 0=no damage to plant), PANMI” value ([5]; rate 130, evaluated after 15 d) was 0. For the same molecule, the “damage to plant (100=total damage to plant; 0=no damage to plant), PANMI” value ([5]; rate 250, evaluated after 15 d) was 0, the “damage to plant (100=total damage to plant; 0=no damage to plant), PANMI” value ([5]; rate 500, evaluated after 15 d) was 0 and the “damage to plant (100=total damage to plant; 0=no damage to plant), SETFA” value ([5]; rate 130, evaluated after 15 d) was 0. The “damage to plant (100=total damage to plant; 0=no damage to plant), SETFA” value ([5]; rate 250, evaluated after 15 d) was 60, the “damage to plant (100=total damage to plant; 0=no damage to plant), SETFA” value ([5]; rate 500, evaluated after 15 d) was 80 and the “damage to plant (100=total damage to plant; 0=no damage to plant), SIDSP” value ([5]; rate 130, evaluated after 15 d) was 0. For the same molecule, the “damage to plant (100=total damage to plant; 0=no damage to plant), SIDSP” value ([5]; rate 250, evaluated after 15 d) was 0, the “damage to plant (100=total damage to plant; 0=no damage to plant), SIDSP” value ([5]; rate 500, evaluated after 15 d) was 10 and the “damage to plant (100=total damage to plant; 0=no damage to plant), SORVU” value ([5]; rate 130, evaluated after 15 d) was 0. For the same molecule, the “damage to plant (100=total damage to plant; 0=no damage to plant), SORVU” value ([5]; rate 250, evaluated after 15 d) was 0 and the “damage to plant (100=total damage to plant; 0=no damage to plant), SORVU” value ([5]; rate 500, evaluated after 15 d) was 0.
